For 13 compounds, pest or weed control and control value results are on record in patent US8247431B2, “Heterocyclic hydrazide compound and pesticidal use of the same” (Sumitomo Chemical Company, Limited, priority 2007, dated 2012).

Common to all, as to format: in vivo
Test [1] has as its system diamondback moths (Plutella xylostella). Kind of test: Test Example 1: spray on cabbage, third-instar larvae of diamondback moths. As to conditions: 20 ml/cup spray on cabbage, 10 third-instar larvae, counted after 5 days; for pest or weed control at 500 ppm: Plutella xylostella, 120 h, 500 ppm active ingredient, read-out: controlling value. Here is the method: Then, it will be shown by Test Examples that the present compound is effective in controlling harmful arthropods. In the Test Example, controlling values were calculated by the following equation: Controlling value(%)={1−(Cb×Tai)/(Cai×Tb)}×100 wherein Cb: the number of worms in a non-treated section before treatment Cai: the number of worms in a non-treated section on observation Tb: the number of worms in a treated-section before treatment Tai: the number of worms in a treated-section on observation. Preparations of the test compounds obtained in Formulation Example 5 were diluted with water so that the active ingredient concentration became 500 ppm, to prepare test spray solutions. At the same time, cabbage was planted in a polyethylene cup, and grown until the third true leaf or the fourth true leaf was developed. The test spray solution as described above was sprayed in an amount of 20 ml/cup on the cabbage. After the spray solution on the cabbage was dried, 10 third-instar larvae of diamondback moths (Plutella xylostella) were put on the cabbage. After 5 days, the number of diamondback moths was counted, and the controlling value was calculated by the above equation. Furthermore, preparations of the test compound (7) and a comparative compound of the formula [drawing 523] obtained in a formulation according to Formulation Example 5 were diluted with water so that the active ingredient concentration became 0.2 ppm, to prepare test spray solution. At the same time, cabbage was planted in a polyethylene cup, and grown until the third true leaf or the fourth true leaf was developed. The test spray solution as described above was sprayed in an amount of 20 ml/cup on the cabbage. After the spray solution on the cabbage was dried, 10 third-instar larvae of diamondback moths (Plutella xylostella) were put on the cabbage. After 5 days, the number of diamondback moths was counted, and the controlling value was calculated by the above equation.

In test [2] the test system is cotton aphids (Aphis gossypii). Kind of test: Test Example 2: spray on cucumber infested with cotton aphids. The following applies: topical, 144 h, 500 ppm active ingredient, 20 ml/cup spray on cucumber, about 30 aphids, counted six days after spraying, read-out: controlling value. Here is the method:
Then, it will be shown by Test Examples that the present compound is effective in controlling harmful arthropods. In the Test Example, controlling values were calculated by the following equation: Controlling value(%)={1−(Cb×Tai)/(Cai×Tb)}×100 wherein Cb: the number of worms in a non-treated section before treatment Cai: the number of worms in a non-treated section on observation Tb: the number of worms in a treated-section before treatment Tai: the number of worms in a treated-section on observation. Preparations of the test compounds obtained in Formulation Example 5 were diluted with water so that the active ingredient concentration became 500 ppm to prepare test spray solutions. At the same time, cucumber was planted in a polyethylene cup, and was grown until the first true leaf was developed. About 30 cotton aphids were put on the cucumber. One day after, the test spray solution as described above was sprayed in an amount of 20 ml/cup on the cucumber. Six days after spraying, the number of cotton aphids (Aphis gossypii) was counted, and a controlling value was calculated by the above equation.

The next test deals with Spodoptera litura. Kind of test: Test Example 3: spray on cabbage, fourth-instar larvae of Spodoptera litura. As to conditions: 120 h, 500 ppm active ingredient, 20 ml/cup spray on cabbage, 10 fourth-instar larvae, counted after 5 days, read-out: controlling value. Here is the method:
Then, it will be shown by Test Examples that the present compound is effective in controlling harmful arthropods. In the Test Example, controlling values were calculated by the following equation: Controlling value(%)={1−(Cb×Tai)/(Cai×Tb)}×100 wherein Cb: the number of worms in a non-treated section before treatment Cai: the number of worms in a non-treated section on observation Tb: the number of worms in a treated-section before treatment Tai: the number of worms in a treated-section on observation. Preparations of the test compounds obtained in Formulation Example 5 were diluted with water so that the active ingredient concentration became 500 ppm to prepare test spray solutions. At the same time, cabbage was planted in a polyethylene cup, and grown until the third true leaf or the fourth true leaf was developed. The test spray solution as described above was sprayed in an amount of 20 ml/cup on the cabbage. After the spray solution sprayed on the cabbage was dried, 10 fourth-instar larvae of Spodoptera litura were put on the cabbage. After 5 days, the number of Spodoptera litura surviving on the cabbage leaves was counted, and a controlling value was calculated by the above equation.

Test [3] relates to Adoxophyes orana fasciata. Nature of the test: Test Example 4: spray on apple seedling, first-instar larvae of Adoxophyes orana fasciata. As to conditions: 168 h, 500 ppm active ingredient, 20 ml spray on apple seedling, about 30 first-instar larvae, counted seven days after spraying, read-out: controlling value. The protocol: Then, it will be shown by Test Examples that the present compound is effective in controlling harmful arthropods. In the Test Example, controlling values were calculated by the following equation: Controlling value(%)={1−(Cb×Tai)/(Cai×Tb)}×100 wherein Cb: the number of worms in a non-treated section before treatment Cai: the number of worms in a non-treated section on observation Tb: the number of worms in a treated-section before treatment Tai: the number of worms in a treated-section on observation. Preparations of the test compounds obtained in Formulation Example 5 were diluted with water so that the active ingredient concentration became 500 ppm to prepare test spray solutions. At the same time, 20 ml of the test spray solution as described above was sprayed to an apple seedling (28 day-old seeding, tree height: about 15 cm) planted in a plastic cup. The apple seedling was air-dried to such an extent that the spray solution sprayed on the apple seedling was dried. About 30 first-instar larvae of Adoxophyes orana fasciata were released. Seven days after spraying, the number of worms surviving on the apple seedling was counted, and a controlling value was calculated by the above equation.

On to `COC(=O)NNC(=O)c1cc(Cl)nc(Cl)c1NC(=O)c1cc(Br)nn1-c1ncccc1Cl` [Compound 1, N′-(3-{[5-bromo-2-(3-chloro-pyridin-2-yl)-2H-pyrazole-3-carbonyl]-amino}-2,6-dichloro-pyridine-4-carbonyl)-hydrazinecarboxylic acid methyl ester], for which the pest or weed control at 500 ppm in test [1] was at least 90%; in test [2] it was at least 90%; in the test with Spodoptera litura it was at least 80%; in test [3], at least 90%.

For `COC(=O)NNC(=O)c1cc(Cl)nc(Cl)c1NC(=O)c1cc(C(F)(F)F)nn1-c1ncccc1Cl` [Compound 2, N′-(2,6-dichloro-3-{[2-(3-chloro-pyridin-2-yl)-5-trifluoromethyl-2H-pyrazole-3-carbonyl]-amino}-pyridine-4-carbonyl)-hydrazinecarboxylic acid methyl ester], the pest or weed control at 500 ppm in test [1], in test [2] and in test [3] was at least 90% throughout.

As for `COC(=O)NNC(=O)c1cc(Cl)nc(C)c1NC(=O)c1cc(Br)nn1-c1ncccc1Cl` [Compound 3, N′-(3-{[5-bromo-2-(3-chloro-pyridin-2-yl)-2H-pyrazole-3-carbonyl]-amino}-6-chloro-2-methyl-pyridine-4-carbonyl)-hydrazinecarboxylic acid methyl ester], the pest or weed control at 500 ppm in test [1] is at least 90%; in test [2] it was at least 90%; in the test on Spodoptera litura, at least 80%; in test [3], at least 90%.

With `COC(=O)NNC(=O)c1cc(Cl)nc(Br)c1NC(=O)c1cc(Br)nn1-c1ncccc1Cl` [Compound 4, N′-(2-bromo-3-{[5-bromo-2-(3-chloro-pyridin-2-yl)-2H-pyrazole-3-carbonyl]-amino}-6-chloro-pyridine-4-carbonyl)-hydrazinecarboxylic acid methyl ester], the pest or weed control at 500 ppm is at least 90% in test [1], at least 90% in test [2], at least 80% in the test on Spodoptera litura and at least 90% in test [3].

As for `COC(=O)NNC(=O)c1cc(Br)nc(Br)c1NC(=O)c1cc(Br)nn1-c1ncccc1Cl` [Compound 5, N′-(2,6-dibromo-3-{[5-bromo-2-(3-chloro-pyridin-2-yl)-2H-pyrazole-3-carbonyl]-amino}-pyridine-4-carbonyl)-hydrazinecarboxylic acid methyl ester], the pest or weed control at 500 ppm was at least 90% in test [1], at least 90% in test [2], at least 80% with Spodoptera litura and at least 90% in test [3].

In the case of `COC(=O)N(C)N(C)C(=O)c1nc(Cl)cc(C)c1NC(=O)c1cc(Br)nn1-c1ncccc1Cl` [Compound 9, N′-(3-{[5-bromo-2-(3-chloro-pyridin-2-yl)-2H-pyrazole-3-carbonyl]-amino}-6-chloro-4-methyl-pyridine-2-carbonyl)-N,N′-dimethyl-hydrazinecarboxylic acid methyl ester], the figures for the pest or weed control at 500 ppm (in test [1]; in test [2]; with Spodoptera litura) were at least 90%, at least 90% and at least 80%, respectively.

In the case of `CCN(NC(=O)c1nc(Cl)cc(C)c1NC(=O)c1cc(Br)nn1-c1ncccc1Cl)C(=O)OC` [Compound 10, N′-(3-{[5-bromo-2-(3-chloro-pyridin-2-yl)-2H-pyrazole-3-carbonyl]-amino}-6-chloro-4-methyl-pyridine-2-carbonyl)-N-ethyl-hydrazinecarboxylic acid methyl ester], the pest or weed control at 500 ppm in test [1] was at least 90%; in test [2] it was at least 90%; with Spodoptera litura it was at least 80%.

As to `CCN(NC(=O)OC)C(=O)c1nc(Cl)cc(C)c1NC(=O)c1cc(Br)nn1-c1ncccc1Cl` [Compound 11, N′-(3-{[5-bromo-2-(3-chloro-pyridin-2-yl)-2H-pyrazole-3-carbonyl]-amino}-6-chloro-4-methyl-pyridine-2-carbonyl)-N′-ethyl-hydrazine carboxylic acid methyl ester], the figures for the pest or weed control at 500 ppm (in test [1]; in test [2]; in the test with Spodoptera litura) were at least 90%, at least 90% and at least 80%, respectively.

Consider `CCN(NC(=O)OC)C(=O)c1nc(Br)cc(Br)c1NC(=O)c1cc(Br)nn1-c1ncccc1Cl` [Compound 16, N′-(4,6-dibromo-3-{[5-bromo-2-(3-chloro-pyridin-2-yl)-2H-pyrazole-3-carbonyl]-amino}-pyridine-2-carbonyl)-N′-ethyl-hydrazinecarboxylic acid methyl ester], for which the pest or weed control at 500 ppm is at least 90% in test [1], at least 90% in test [2] and at least 80% in the test on Spodoptera litura.

As to `COC(=O)NNC(=O)c1cccnc1NC(=O)c1cc(C(F)(F)F)nn1-c1ncccc1Cl` [Compound 17, N′-(2-{[2-(3-chloro-pyridin-2-yl)-5-trifluoromethyl-2H-pyrazole-3-carbonyl]-amino}-pyridine-3-carbonyl)-hydrazinecarboxylic acid methyl ester], the pest or weed control at 500 ppm in test [1] is at least 90%; in the test with Spodoptera litura, at least 80%.

As to `COC(=O)NNC(=O)c1scc(C)c1NC(=O)c1cc(Br)nn1-c1ncccc1Cl` [Compound 18, N′-(3-{[5-bromo-2-(3-chloro-pyridin-2-yl)-2H-pyrazole-3-carbonyl]-amino}-4-methyl-thiophene-2-carbonyl)-hydrazinecarboxylic acid methyl ester], the pest or weed control at 500 ppm in test [2] is at least 90%.

Regarding `COC(=O)NNC(=O)c1cnn(C)c1NC(=O)c1cc(Br)nn1-c1ncccc1Cl` [Compound 19, N′-(5-{[5-bromo-2-(3-chloro-pyridin-2-yl)-2H-pyrazole-3-carbonyl]-amino}-1-methyl-1H-pyrazole-4-carbonyl)-hydrazinecarboxylic acid methyl ester], the pest or weed control at 500 ppm in test [1], in test [2] and in test [3] was at least 90% throughout.

As to `Cc1cc(Cl)nc(C(=O)NN(C)C)c1NC(=O)c1cc(Br)nn1-c1ncccc1Cl` [reference compound], the control value result in test [1] (0.2 ppm active ingredient) is listed as “less than 80%”.
